Counter-ions that a name gives are not always drawn.
Target: T1, human TRPV4 (Homo sapiens, UniProt Q9HBA0)
T1 construct: expressed in transfected cells
Assay: Fluorometric cell-based Ca2+ flux assay, HEK-293 cells stably overexpressing human TRPV4
Settings: HEK-293 stably overexpressing human TRPV4; agonist GSK1016790A 30 nM
Protocol: Fluorometric cell-based Ca^2+ flux assays were performed to assess TRPV4 antagonist activity and determine potency (IC50 values) in human embryonic kidney-293 cells (HEK-293) that stably overexpress human TRPV4. The assays were performed according to methods described in: Deering-Rice, C. E., Johansen, M. E., Roberts, J. K., Thomas, K. C., Romero, E. G., Lee, J., Yost, G. S., Veranth, J. M., and Reilly, C. A. (2012), Mol. Pharmacol. 81(3), 411-419; Shapiro, D., Deering-Rice, C. E., Romero, E. G., Hughen, R. W., Light, A. R., Veranth, J. M., and Reilly, C. A. (2013), Chem Res. Toxicol., 26, 750-758; and Deering-Rice, C. E., Mitchell, V. K., Romero, E. G., Abdel Aziz, M. H., and Reilly, C. A. (2014), Pharmacol. Res. & Perspectives. 2(5), 1-10.
The HEK-293 cells stably overexpressing human TRPV4 were grown to confluence in 2% (w/v) gelatin-coated 96-well plates in DMEM:F12 media supplemented with 5% fetal bovine serum, 1× penicillin/streptomycin (Invitrogen) and Geneticin (300 μg/mL).
The HEK-293 cells were prepared for assay by replacing the growth media with a 1:1 solution of LHC-9 and Fluo 4-Direct (Invitrogen) reagent containing Fluo 4-AM, pluronic F-127, probenecid, and a proprietary quencher dye. The cells were then incubated at 37° C. for 1 h in a cell culture incubator. The cells were subsequently washed by replacing the loading solution with LHC-9 containing 1 mM water-soluble probenecid (Invitrogen), 750 μM Trypan Red (ATT Bioquest), and a test compound (at various concentrations). The cells were incubated for an additional 30 minutes at 37° C. to allow for Fluo 4-AM cleavage and activation, as well as equilibration to both the test compounds and Fluo 4.
An agonist treatment solution (90 nM GSK1016790A, a potent activator of TRPV4) was prepared in LHC9 at 3× concentration and 25 μL was added to 50 μL of media on the cells in 96 well plates, providing a final concentration of 30 nM. Changes in cellular fluorescence were monitored with a BMG Labtech NOVOStar fluorescence plate reader for 1 minute at 37° C. Data were quantified as the maximum rate of change in fluorescence intensity (max ΔF/s), corrected for media only treatment (negative control), and represented as the percentage of response relative to the no antagonist control. A minimum of three replicates were used for each treatment condition, with a minimum of 8 concentrations to derive the IC50 values reported for each antagonist. The IC50 values for each antagonist, which are shown in Table 4 below, were calculated according to methods described in the assays were performed according to methods described in: Deering-Rice, C. E., Johansen, M. E., Roberts, J. K., Thomas, K. C., Romero, E. G., Lee, J., Yost, G. S., Veranth, J. M., and Reilly, C. A. (2012), Mol. Pharmacol. 81(3), 411-419; Shapiro, D., Deering-Rice, C. E., Romero, E. G., Hughen, R. W., Light, A. R., Veranth, J. M., and Reilly, C. A. (2013), Chem Res. Toxicol., 26, 750-758; and Deering-Rice, C. E., Mitchell, V. K., Romero, E. G., Abdel Aziz, M. H., and Reilly, C. A. (2014), Pharmacol. Res. & Perspectives. 2(5), 1-10.

T1 sequence (Q9HBA0 whole entry): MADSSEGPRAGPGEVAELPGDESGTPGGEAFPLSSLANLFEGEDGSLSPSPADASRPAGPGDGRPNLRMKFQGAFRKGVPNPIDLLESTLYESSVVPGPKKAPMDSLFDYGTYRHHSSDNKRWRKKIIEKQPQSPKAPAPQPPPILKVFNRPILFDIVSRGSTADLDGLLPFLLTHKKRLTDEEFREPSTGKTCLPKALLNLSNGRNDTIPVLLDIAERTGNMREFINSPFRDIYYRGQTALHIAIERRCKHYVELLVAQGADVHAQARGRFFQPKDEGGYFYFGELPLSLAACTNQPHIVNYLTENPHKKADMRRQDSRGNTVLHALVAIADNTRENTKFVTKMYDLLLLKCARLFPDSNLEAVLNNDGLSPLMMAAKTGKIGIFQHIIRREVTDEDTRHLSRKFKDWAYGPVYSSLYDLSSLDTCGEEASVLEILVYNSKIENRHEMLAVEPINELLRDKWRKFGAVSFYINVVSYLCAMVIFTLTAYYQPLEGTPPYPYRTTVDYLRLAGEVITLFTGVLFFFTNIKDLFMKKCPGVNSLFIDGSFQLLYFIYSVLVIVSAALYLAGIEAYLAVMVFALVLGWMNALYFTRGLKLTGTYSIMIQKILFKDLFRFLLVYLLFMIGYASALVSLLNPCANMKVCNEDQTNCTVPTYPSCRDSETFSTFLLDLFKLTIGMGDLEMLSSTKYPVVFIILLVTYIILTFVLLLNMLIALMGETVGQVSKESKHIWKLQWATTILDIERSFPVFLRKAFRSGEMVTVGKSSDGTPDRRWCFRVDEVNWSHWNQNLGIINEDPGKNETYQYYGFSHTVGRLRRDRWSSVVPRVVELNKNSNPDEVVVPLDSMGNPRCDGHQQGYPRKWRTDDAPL

Row | SMILES | IC50 [nM]
1 | N#Cc1ccc(OCC2(CO)CN(S(=O)(=O)c3cc(Cl)cc(Cl)c3)C2)cc1F [Compound 68, 4-((1-((3,5-Dichlorophenyl)sulfonyl)-3-(hydroxymethyl)azetidin-3-yl)methoxy)-2-fluorobenzonitrile] | 5000
2 | CS(=O)(=O)c1ccc(S(=O)(=O)N2CC(CO)(COc3ccc(C#N)c(F)c3)C2)cc1 [Compound 69, 2-Fluoro-4-((3-(hydroxymethyl)-1-((4-(methylsulfonyl)phenyl)sulfonyl)azetidin-3-yl)methoxy)benzonitrile] | 5000
3 | CN(C)C1(COc2ccc(C#N)c(F)c2)CN(S(=O)(=O)c2ccc(Cl)cc2Cl)C1 [Compound 54, 4-((1-((2,4-Dichlorophenyl)sulfonyl)-3-(dimethylamino)azetidin-3-yl)methoxy)-2-fluorobenzonitrile] | 1240
4 | N#Cc1ccc(OCC2(CO)CN(S(=O)(=O)c3ccc(Cl)cc3Cl)C2)c(Cl)c1 [Compound 88, 3-Chloro-4-((1-((2,4-dichlorophenyl)sulfonyl)-3-(hydroxymethyl)azetidin-3-yl)methoxy)benzonitrile] | 500
5 | CCOc1cc(OCC2(CO)CN(S(=O)(=O)c3ccc(Cl)cc3Cl)C2)ccc1C#N [Compound 100, 4-((1-((2,4-Dichlorophenyl)sulfonyl)-3-(hydroxymethyl)azetidin-3-yl)methoxy)-2-ethoxybenzonitrile] | > 1000
6 | CCOC(=O)C1(COc2ccc(C#N)c(F)c2)CN(S(=O)(=O)c2ccc(Cl)cc2Cl)C1 [Compound 7, Ethyl 3-((4-cyano-3-fluorophenoxy)methyl)-1-((2,4-dichlorophenyl)sulfonyl)azetidine-3-carboxylate] | 5000
7 | Cc1nn(C)cc1S(=O)(=O)N1CC(CO)(COc2ccc(C#N)c(F)c2)C1 [Compound 66, 4-((1-((1,3-Dimethyl-1H-pyrazol-4-yl)sulfonyl)-3-(hydroxymethyl)azetidin-3-yl)methoxy)-2-fluorobenzonitrile] | 10000
8 | Cc1ccccc1S(=O)(=O)N1CC(CO)(COc2ccc(C#N)c(F)c2)C1 [Compound 76, 2-Fluoro-4-((3-(hydroxymethyl)-1-(o-tolylsulfonyl)azetidin-3-yl)methoxy)benzonitrile] | > 2500
9 | CNCCN(C)C(=O)C1(COc2ccc(C#N)cc2)CN(S(=O)(=O)c2ccc(Cl)cc2Cl)C1 [Compound 5, 3-((4-Cyanophenoxy)methyl)-1-((2,4-dichlorophenyl)sulfonyl)-N-methyl-N-(2-(methylamino)ethyl)azetidine-3-carboxamide] | 2250
10 | N#Cc1ccc(OCC2(CO)CN(S(=O)(=O)c3ccccc3)C2)cc1F [Compound 72, 2-Fluoro-4-((3-(hydroxymethyl)-1-(phenylsulfonyl)azetidin-3-yl)methoxy)benzonitrile] | 5000
11 | Cc1ccc(S(=O)(=O)N2CC(CO)(COc3ccc(C#N)c(F)c3)C2)cc1 [Compound 73, 2-Fluoro-4-((3-(hydroxymethyl)-1-tosylazetidin-3-yl)methoxy)benzonitrile] | 3000
12 | Cc1cc(C#N)ccc1S(=O)(=O)N1CC(CO)(COc2ccc(C#N)c(F)c2)C1 [Compound 79, 4-((1-((4-Cyano-2-methylphenyl)sulfonyl)-3-(hydroxymethyl)azetidin-3-yl)methoxy)-2-fluorobenzonitrile] | > 1300
13 | N#Cc1ccc(OCC2(CN3CCOCC3)CN(S(=O)(=O)c3ccc(Cl)cc3Cl)C2)cc1F [Compound 50, 4-((1-((2,4-Dichlorophenyl)sulfonyl)-3-(morpholinomethyl)azetidin-3-yl)methoxy)-2-fluorobenzonitrile hydrochloride] | 794
14 | N#Cc1ccc(OCC2(CO)CN(S(=O)(=O)c3ccc(C(F)(F)F)nc3)C2)cc1F [Compound 64, 2-Fluoro-4-((3-(hydroxymethyl)-1-((6-(trifluoromethyl)pyridin-3-yl)sulfonyl)azetidin-3-yl)methoxy)benzonitrile] | 5000

The next molecules have a lower IC50 than those just listed; values first:

Row | IC50 [nM] | SMILES
15 | 54 | N#Cc1ccc(S(=O)(=O)N2CC(CO)(COc3ccc(C#N)c(F)c3)C2)c(Cl)c1 [Compound 60, 4-((1-((2-Chloro-4-cyanophenyl)sulfonyl)-3-(hydroxymethyl)azetidin-3-yl)methoxy)-2-fluorobenzonitrile]
16 | 23 | N#Cc1ccc(OCC2(NC(=O)CN)CN(S(=O)(=O)c3ccc(Cl)cc3Cl)C2)cc1F [Compound 55, 2-Amino-N-(3-((4-cyano-3-fluorophenoxy)methyl)-1-((2,4-dichlorophenyl)sulfonyl)azetidin-3-yl)acetamide]
17 | 153 | N#Cc1ccc(OCC2(CNCC(N)=O)CN(S(=O)(=O)c3ccc(Cl)cc3Cl)C2)cc1F [Compound 20, 2-(((3-((4-Cyano-3-fluorophenoxy)methyl)-1-((2,4-dichlorophenyl)sulfonyl)azetidin-3-yl)methyl)amino)acetamide hydrochloride]
18 | 0.3 | C[C@@H](O)CNCC1(COc2ccc(C#N)c(F)c2)CN(S(=O)(=O)c2ccc(Cl)cc2Cl)C1 [Compound 30, (R)-4-((1-((2,4-Dichlorophenyl)sulfonyl)-3-(((2-hydroxypropyl)amino)methyl)azetidin-3-yl)methoxy)-2-fluorobenzonitrile hydrochloride]
19 | 18.7 | COCCNCC1(COc2ccc(C#N)c(F)c2)CN(S(=O)(=O)c2ccc(Cl)cc2Cl)C1 [Compound 21, 4-((1-((2,4-dichlorophenyl)sulfonyl)-3-(((2-methoxyethyl)amino)methyl)azetidin-3-yl)methoxy)-2-fluorobenzonitrile hydrochloride]
20 | 13.4 | N#Cc1ccc(OCC2(CNC[C@H]3CCCO3)CN(S(=O)(=O)c3ccc(Cl)cc3Cl)C2)cc1F [Compound 40, (R)-4-((1-((2,4-dichlorophenyl)sulfonyl)-3-((((tetrahydrofuran-2-yl)methyl)amino)methyl)azetidin-3-yl)methoxy)-2-fluorobenzonitrile hydrochloride]
21 | 67.2 | COc1cc(C#N)ccc1OCC1(CO)CN(S(=O)(=O)c2ccc(Cl)cc2Cl)C1 [Compound 98, 4-((1-((2,4-Dichlorophenyl)sulfonyl)-3-(hydroxymethyl)azetidin-3-yl)methoxy)-3-methoxybenzonitrile]
22 | 481 | N#Cc1ccc(OCC2(CO)CN(S(=O)(=O)c3ccc(C(F)(F)F)cc3Cl)C2)cc1F [Compound 59, 4-((1-((2-Chloro-4-(trifluoromethyl)phenyl)sulfonyl)-3-(hydroxymethyl)azetidin-3-yl)methoxy)-2-fluorobenzonitrile]
23 | 0.7 | N#Cc1ccc(OCC2(CNC3CCOCC3)CN(S(=O)(=O)c3ccc(Cl)cc3Cl)C2)cc1F [Compound 18, 4-((1-((2,4-Dichlorophenyl)sulfonyl)-3-(((tetrahydro-2H-pyran-4-yl)amino)methyl)azetidin-3-yl)methoxy)-2-fluorobenzonitrile hydrochloride]
24 | 1.98 | N#Cc1ccc(OCC2(CNCC(O)CO)CN(S(=O)(=O)c3ccccc3C#N)C2)cc1F (centres unmarked) [Compound 115, 4-((1-((2-Cyanophenyl)sulfonyl)-3-(((2,3-dihydroxypropyl)amino)methyl)azetidin-3-yl)methoxy)-2-fluorobenzonitrile]
25 | 0.3 | N#Cc1ccc(OCC2(CN[C@H]3CC[C@H](O)CC3)CN(S(=O)(=O)c3ccc(Cl)cc3Cl)C2)cc1F [Compound 41, 4-((1-((2,4-Dichlorophenyl)sulfonyl)-3-((((trans)-4-hydroxycyclohexyl)amino)methyl)azetidin-3-yl)methoxy)-2-fluorobenzonitrile hydrochloride]
26 | 6.45 | CCOC(=O)CCNCC1(COc2ccc(C#N)c(F)c2)CN(S(=O)(=O)c2ccccc2C#N)C1 [Compound 114, Ethyl 3-(((3-((4-cyano-3-fluorophenoxy)methyl)-1-((2-cyanophenyl)sulfonyl)azetidin-3-yl)methyl)amino)propanoate]
